ChEMBL document CHEMBL1201862, “PubChem BioAssay data set” (2004)
The source made the active and inactive calls.

Tests used:
Leucine aminopeptidase = biological target: T1, Leucine aminopeptidase (Plasmodium falciparum 3D7, UniProt Q8IL11); test: P. falciparum M17LAP inhibitors, primary screen, biochemical, fluorogenic H-Leu-NHMec substrate, 1536-well (AID 1619); assay type: functional
T1 sequence (Q8IL11 whole entry): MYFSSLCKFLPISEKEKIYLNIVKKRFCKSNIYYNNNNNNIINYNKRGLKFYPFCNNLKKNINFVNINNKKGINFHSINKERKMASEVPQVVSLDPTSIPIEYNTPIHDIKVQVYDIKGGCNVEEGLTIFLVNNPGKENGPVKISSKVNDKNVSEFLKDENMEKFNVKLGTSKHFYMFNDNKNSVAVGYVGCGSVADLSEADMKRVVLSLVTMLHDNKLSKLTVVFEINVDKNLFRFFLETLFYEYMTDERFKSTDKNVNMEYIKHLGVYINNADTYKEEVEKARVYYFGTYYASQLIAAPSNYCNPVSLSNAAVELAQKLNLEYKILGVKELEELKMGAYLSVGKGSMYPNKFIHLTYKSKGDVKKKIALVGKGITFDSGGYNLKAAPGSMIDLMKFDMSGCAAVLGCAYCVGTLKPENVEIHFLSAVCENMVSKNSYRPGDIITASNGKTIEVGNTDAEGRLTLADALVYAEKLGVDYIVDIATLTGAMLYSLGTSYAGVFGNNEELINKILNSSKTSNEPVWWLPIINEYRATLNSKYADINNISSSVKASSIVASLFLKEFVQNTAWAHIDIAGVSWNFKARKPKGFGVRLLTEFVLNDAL

[1] = biological target: T2, RNA-binding protein pos-1 (Caenorhabditis elegans, UniProt G5EF15); test: disruptors of C. elegans POS-1 RNA interaction – biochemical, fluorescence polarization, dose response (AID 1964);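 also: purified POS-1 fused to maltose binding protein made in E. coli; potency of compounds blocking POS-1 binding to fluorescent RNA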
T2 sequence (G5EF15 whole entry): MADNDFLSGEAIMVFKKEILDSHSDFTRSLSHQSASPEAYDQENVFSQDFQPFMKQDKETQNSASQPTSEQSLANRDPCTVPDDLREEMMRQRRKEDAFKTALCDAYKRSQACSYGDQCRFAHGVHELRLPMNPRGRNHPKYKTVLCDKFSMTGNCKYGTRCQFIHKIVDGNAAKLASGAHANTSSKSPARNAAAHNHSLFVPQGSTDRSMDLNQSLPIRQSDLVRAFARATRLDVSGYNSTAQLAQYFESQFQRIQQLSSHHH

SUMO-activating enzyme [2] = biological target: T3, SUMO-activating enzyme (Homo sapiens, UniProt Q9UBT2); test: blockers of UBC9-mediated SUMO conjugation – biochemical, AlphaScreen, SUMOylation inhibitor project, confirmation (AID 2018); assay type: functional
T3 sequence (Q9UBE0 whole entry): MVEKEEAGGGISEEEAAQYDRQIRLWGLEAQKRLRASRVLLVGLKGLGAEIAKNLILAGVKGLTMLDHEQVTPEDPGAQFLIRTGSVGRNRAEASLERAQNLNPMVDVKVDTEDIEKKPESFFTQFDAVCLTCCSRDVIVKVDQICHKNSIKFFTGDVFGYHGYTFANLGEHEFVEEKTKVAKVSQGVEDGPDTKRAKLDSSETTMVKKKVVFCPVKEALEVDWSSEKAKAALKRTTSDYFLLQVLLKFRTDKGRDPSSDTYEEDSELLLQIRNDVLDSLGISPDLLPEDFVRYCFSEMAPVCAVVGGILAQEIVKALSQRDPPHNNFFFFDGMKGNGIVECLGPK
T3 sequence (Q9UBT2 whole entry): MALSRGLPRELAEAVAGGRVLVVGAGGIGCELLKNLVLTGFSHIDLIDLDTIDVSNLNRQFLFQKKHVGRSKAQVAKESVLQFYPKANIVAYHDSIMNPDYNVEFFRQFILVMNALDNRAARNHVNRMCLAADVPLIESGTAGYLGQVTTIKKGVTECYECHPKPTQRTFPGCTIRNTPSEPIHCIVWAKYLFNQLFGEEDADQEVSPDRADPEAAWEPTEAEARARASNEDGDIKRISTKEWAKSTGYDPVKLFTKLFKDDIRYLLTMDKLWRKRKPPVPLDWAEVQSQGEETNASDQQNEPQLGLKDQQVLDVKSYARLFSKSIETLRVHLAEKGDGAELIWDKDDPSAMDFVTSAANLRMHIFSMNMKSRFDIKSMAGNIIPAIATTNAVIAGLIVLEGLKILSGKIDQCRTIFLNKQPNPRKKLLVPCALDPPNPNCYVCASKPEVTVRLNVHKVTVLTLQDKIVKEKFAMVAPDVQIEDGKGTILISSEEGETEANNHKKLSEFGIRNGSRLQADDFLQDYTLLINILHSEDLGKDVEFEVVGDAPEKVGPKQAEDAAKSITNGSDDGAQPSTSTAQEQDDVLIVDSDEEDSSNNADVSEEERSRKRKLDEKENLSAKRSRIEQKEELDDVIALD

[3] = biological target: T4, Zinc finger protein mex-5 (Caenorhabditis elegans, UniProt Q9XUB2); test: potency of MEX-5 RNA-binding blockers – biochemical, C. elegans, fluorescence polarization, dose response (AID 1960)
T4 sequence (Q9XUB2 whole entry): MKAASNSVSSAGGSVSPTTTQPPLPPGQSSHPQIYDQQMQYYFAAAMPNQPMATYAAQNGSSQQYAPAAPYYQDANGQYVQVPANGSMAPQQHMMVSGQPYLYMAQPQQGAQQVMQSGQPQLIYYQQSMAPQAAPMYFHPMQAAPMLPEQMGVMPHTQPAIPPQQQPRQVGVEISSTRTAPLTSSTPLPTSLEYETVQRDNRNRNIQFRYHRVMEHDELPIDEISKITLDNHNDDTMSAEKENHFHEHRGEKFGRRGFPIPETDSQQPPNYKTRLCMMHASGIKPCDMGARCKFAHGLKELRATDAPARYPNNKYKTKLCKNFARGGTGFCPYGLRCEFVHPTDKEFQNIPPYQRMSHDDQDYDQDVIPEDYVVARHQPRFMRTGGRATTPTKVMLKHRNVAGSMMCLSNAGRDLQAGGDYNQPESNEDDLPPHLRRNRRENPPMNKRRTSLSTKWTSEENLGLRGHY

Large T antigen = Large T antigen (Simian virus 40, UniProt P03070); assay type: functional, Betapolyomavirus macacae;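 also: Confirmatory-stage PubChem screen for compounds that inhibit SV40 T antigen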
Large T antigen, sequence (P03070 whole entry): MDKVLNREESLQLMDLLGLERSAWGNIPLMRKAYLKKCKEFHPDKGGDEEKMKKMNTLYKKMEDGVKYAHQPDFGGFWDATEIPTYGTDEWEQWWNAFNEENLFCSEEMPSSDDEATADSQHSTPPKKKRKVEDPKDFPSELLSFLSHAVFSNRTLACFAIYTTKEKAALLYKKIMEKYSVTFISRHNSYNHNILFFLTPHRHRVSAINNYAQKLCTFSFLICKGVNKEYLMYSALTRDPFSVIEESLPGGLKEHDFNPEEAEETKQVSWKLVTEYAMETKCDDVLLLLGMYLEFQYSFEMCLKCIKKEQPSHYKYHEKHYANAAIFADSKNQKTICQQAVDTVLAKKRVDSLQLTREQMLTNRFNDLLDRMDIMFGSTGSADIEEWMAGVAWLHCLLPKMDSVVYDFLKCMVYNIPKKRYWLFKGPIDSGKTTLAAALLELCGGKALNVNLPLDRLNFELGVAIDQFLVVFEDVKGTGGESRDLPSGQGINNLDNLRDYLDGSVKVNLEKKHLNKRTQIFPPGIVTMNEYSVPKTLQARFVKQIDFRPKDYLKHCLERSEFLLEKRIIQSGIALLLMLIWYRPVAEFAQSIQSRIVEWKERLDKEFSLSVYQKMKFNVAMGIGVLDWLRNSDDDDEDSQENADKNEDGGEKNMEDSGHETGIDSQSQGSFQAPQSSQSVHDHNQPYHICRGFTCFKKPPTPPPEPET

SUMO-activating enzyme [4] = biological target: T3, SUMO-activating enzyme; test: blockers of SAE1/SAE2–UBC9 SUMO transfer – biochemical, HTRF, uHTS, primary screen (AID 2006); assay type: protein-complex assay
[5] = biological target: T5, Induced myeloid leukemia cell differentiation protein Mcl-1 (Homo sapiens, UniProt Q07820); test: blockers of MCL1 binding to BIM peptide – biochemical, fluorescence polarization, BIM-BH3 peptide, 1536-well, dose response (AID 2217)
T5 sequence (Q07820 whole entry): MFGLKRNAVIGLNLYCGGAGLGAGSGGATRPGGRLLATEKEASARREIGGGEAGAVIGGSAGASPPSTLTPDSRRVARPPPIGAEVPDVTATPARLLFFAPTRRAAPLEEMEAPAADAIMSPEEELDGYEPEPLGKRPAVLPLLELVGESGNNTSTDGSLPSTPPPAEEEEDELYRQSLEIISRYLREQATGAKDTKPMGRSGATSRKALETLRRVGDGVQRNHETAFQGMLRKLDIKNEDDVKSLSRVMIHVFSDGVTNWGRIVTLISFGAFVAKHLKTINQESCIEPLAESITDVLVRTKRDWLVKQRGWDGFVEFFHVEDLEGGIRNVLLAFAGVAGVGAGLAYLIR

Bcl-2-like protein 1 = Bcl-2-like protein 1 (Homo sapiens, UniProt Q07817); test: blockers of BCLXL peptide binding – biochemical, fluorescence polarization, 1536-well, selectivity assay for MCL1 inhibitor project, dose response (AID 2218)
Bcl-2-like protein 1, sequence (Q07817 whole entry): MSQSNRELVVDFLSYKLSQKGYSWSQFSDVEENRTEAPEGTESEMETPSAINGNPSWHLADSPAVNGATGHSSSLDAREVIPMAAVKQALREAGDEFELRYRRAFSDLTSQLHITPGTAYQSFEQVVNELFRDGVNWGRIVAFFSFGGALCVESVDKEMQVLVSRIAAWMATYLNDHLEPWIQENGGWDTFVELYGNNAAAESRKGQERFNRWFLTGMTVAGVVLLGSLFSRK

[6] = biological target: T5, Induced myeloid leukemia cell differentiation protein Mcl-1; assay type: functional
Nonstructural protein 1 = Nonstructural protein 1 (Influenza A virus, UniProt Q194T2); assay type: functional, Influenza A virus (A/California/07/2009(H1N1))
Cysteine protease ATG4B = biological target: T6, Cysteine protease ATG4B (Homo sapiens, UniProt Q9Y4P1); assay type: functional;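 also: Fluorescence-based dose-response confirmation assay measuring inhibition of ATG4B activity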
T6 sequence (Q9Y4P1 whole entry): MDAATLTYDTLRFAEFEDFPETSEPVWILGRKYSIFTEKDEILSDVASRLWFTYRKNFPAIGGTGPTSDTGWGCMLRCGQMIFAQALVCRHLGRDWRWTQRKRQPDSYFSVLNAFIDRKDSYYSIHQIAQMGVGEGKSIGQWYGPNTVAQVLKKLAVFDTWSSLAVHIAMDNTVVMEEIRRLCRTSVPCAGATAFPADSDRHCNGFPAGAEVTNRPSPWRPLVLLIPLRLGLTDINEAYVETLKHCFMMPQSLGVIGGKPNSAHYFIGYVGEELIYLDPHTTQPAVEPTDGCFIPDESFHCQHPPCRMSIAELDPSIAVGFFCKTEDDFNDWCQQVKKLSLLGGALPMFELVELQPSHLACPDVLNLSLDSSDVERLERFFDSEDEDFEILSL

Phospholipase A2 = Phospholipase A2 (Homo sapiens, UniProt P04054); assay type: functional;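 also: confirmatory dose-response counterscreen on phospholipase A2, testing hits that came from an ultra-high-throughput screen for ATG4B inhibitors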
Phospholipase A2, sequence (P04054 whole entry): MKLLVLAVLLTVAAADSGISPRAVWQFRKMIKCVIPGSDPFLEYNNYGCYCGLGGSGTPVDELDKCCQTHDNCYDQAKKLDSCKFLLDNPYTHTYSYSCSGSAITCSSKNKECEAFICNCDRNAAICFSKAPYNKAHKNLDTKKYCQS

Genome polyprotein = Genome polyprotein (dengue virus type 2, UniProt P29990); test: flavivirus cap methylation enzyme inhibition – biochemical, confirmation dose response, primary screen (AID 588689); assay type: functional
Genome polyprotein, sequence (P29990 2492-3391 limits assumed): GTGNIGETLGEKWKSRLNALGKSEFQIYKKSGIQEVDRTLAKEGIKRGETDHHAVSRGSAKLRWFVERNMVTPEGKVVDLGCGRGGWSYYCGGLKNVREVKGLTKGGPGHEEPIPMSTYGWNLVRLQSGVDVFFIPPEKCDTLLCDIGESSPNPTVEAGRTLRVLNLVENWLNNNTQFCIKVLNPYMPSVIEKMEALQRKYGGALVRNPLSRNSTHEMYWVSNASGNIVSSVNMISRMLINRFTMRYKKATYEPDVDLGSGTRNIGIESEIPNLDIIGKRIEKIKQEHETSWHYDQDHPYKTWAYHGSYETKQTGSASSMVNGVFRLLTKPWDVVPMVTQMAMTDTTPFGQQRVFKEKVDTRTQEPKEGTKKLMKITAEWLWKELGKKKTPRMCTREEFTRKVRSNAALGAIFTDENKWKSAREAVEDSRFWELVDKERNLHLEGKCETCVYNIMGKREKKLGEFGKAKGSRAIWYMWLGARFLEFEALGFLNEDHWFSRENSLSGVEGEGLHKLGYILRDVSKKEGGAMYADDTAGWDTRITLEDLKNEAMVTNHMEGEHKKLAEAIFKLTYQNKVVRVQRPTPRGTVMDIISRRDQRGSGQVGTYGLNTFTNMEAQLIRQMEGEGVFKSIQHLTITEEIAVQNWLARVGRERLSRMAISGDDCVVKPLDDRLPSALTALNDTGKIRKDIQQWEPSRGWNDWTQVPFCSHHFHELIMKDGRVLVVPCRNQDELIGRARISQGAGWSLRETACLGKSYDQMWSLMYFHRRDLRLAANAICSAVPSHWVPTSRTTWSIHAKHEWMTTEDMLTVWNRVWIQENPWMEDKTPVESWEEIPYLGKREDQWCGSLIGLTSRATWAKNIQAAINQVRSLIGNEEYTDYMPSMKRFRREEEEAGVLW

[7] = biological target: DNA (cytosine-5)-methyltransferase 1 (Homo sapiens, UniProt P26358); test: inhibition of DNA methylation by DNMT1 – biochemical, fluorescent molecular beacon, confirmation (AID 602386); assay type: functional
DNA (cytosine-5)-methyltransferase 1, sequence (P26358 whole entry): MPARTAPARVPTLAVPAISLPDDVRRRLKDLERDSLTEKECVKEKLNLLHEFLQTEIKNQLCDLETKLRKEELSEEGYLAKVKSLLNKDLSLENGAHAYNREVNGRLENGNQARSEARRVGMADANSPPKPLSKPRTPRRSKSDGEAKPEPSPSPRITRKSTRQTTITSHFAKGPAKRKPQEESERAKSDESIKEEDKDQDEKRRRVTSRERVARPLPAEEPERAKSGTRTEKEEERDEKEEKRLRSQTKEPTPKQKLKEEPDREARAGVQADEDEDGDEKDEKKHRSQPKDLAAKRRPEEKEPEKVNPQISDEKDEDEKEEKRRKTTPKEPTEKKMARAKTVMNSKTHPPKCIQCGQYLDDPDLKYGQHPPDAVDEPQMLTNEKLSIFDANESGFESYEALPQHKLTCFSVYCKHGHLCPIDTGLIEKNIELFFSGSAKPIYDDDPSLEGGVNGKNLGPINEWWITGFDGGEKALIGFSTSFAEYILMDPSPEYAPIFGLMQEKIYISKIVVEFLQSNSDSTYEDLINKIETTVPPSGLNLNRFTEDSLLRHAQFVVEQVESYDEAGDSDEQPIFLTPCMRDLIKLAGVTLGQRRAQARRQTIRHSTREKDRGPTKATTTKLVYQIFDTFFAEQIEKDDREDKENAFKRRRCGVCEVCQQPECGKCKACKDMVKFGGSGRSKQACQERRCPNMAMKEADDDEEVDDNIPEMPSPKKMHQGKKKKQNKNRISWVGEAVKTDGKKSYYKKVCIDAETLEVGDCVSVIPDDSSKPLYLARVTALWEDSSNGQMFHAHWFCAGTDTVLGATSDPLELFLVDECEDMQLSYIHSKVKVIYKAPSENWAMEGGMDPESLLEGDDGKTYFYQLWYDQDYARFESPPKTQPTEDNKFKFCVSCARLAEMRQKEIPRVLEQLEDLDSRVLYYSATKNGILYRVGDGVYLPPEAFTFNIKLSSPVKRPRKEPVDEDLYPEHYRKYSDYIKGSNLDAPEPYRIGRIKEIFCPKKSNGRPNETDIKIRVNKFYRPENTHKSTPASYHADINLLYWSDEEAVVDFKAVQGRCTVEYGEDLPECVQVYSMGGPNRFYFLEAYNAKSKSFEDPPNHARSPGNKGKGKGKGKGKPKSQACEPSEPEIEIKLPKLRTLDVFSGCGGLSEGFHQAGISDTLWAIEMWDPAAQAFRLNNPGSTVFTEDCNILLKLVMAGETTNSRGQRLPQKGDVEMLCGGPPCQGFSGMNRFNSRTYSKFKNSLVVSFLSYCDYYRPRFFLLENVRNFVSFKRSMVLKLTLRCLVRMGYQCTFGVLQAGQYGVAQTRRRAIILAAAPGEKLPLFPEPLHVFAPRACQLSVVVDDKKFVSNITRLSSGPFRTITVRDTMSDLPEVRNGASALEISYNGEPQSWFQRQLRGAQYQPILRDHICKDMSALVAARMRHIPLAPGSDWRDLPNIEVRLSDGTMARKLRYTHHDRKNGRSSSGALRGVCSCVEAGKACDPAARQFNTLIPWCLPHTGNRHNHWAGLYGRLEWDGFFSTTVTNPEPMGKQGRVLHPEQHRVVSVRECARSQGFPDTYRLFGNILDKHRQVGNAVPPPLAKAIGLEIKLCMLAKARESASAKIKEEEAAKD

[8] = biological target: Protein disulfide-isomerase (Homo sapiens, UniProt P07237); test: inhibition of PDI-driven insulin aggregation – biochemical, turbidity, absorbance, cherry-picked samples, dose response (AID 602350); assay type: functional
[9] = biological target: T7, Calpain-2 catalytic subunit (Sus scrofa, UniProt P43367); test: m-calpain protease blockers, concentration series – biochemical, fluorogenic peptide substrate, dose response (AID 1420); assay type: functional
T7 sequence (P43367 whole entry): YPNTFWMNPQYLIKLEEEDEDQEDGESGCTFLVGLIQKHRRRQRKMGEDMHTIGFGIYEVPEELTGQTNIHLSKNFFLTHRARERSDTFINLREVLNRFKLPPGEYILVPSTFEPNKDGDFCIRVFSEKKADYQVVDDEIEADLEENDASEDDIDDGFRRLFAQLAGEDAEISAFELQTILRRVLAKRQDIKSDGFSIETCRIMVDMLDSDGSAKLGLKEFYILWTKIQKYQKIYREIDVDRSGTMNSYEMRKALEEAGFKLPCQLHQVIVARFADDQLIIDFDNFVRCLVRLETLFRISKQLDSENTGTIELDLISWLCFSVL

[10] = antiviral protection against BTV-induced cell death – arbovirus, BSR cells, confirmation (AID 1250); assay type: functional;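 also: protection from viral cytopathic effect measured as cell viability by ATP luminescence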
Estrogen receptor = biological target: T8, Estrogen receptor (Homo sapiens, UniProt P03372); test: ERα coactivator recruitment enhancers – biochemical, TR-FRET, ERα LBD, dose response (AID 737)
T8 sequence (P03372 whole entry): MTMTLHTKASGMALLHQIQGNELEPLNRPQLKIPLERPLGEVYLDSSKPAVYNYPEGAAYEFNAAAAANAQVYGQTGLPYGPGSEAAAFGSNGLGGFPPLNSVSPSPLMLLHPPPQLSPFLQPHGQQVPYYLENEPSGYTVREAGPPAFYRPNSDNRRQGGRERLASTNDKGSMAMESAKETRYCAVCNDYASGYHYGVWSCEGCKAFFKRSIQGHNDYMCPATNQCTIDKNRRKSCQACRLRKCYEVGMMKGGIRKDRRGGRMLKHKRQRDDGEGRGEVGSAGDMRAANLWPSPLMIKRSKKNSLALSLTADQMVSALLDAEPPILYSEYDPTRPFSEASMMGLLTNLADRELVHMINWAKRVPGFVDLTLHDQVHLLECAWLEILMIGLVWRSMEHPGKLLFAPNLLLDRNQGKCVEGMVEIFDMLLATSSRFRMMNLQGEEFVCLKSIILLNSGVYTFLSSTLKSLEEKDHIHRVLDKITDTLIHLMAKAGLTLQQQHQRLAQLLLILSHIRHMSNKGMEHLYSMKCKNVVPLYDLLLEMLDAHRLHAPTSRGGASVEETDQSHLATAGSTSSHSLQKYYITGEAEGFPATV

[11] = biological target: Neuropeptide Y receptor type 1 (Homo sapiens, UniProt P25929); assay type: functional;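 also: HEK293 cells with a CNG channel challenged with NPY then isoproterenol; potency as antagonist that reverses NPY suppression of cAMP signal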
[12] = biological target: Neuropeptide Y receptor type 2 (Homo sapiens, UniProt P49146); assay type: functional, cell-based;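 also: HEK293 cells expressing the receptor and a CNG channel; stimulus was NPY near EC95 followed by isoproterenol to raise cAMP; antagonist potency measured as restoring cAMP signal that NPY suppresses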
[13] = restored growth of temperature-sensitive Burl-1 yeast – whole organism, S. cerevisiae, Burl-1 ts mutant, luminescence, counter-screen for SUMOylation pathway inhibitor project, dose response (AID 463199); assay type: functional
H9c2 = test: cells; assay type: functional, cell-based; settings: Rattus norvegicus, H9c2, Myocardium

## COc1cccc(NS(=O)(=O)c2ccc3c(c2)C2C=CCC2C(c2ccc(C(=O)O)cc2)N3)c1 (configuration not stated)
Leucine aminopeptidase
  IC50: 15.8 µM (active)
[1]
  EC50: 18 µM (inconclusive)
SUMO-activating enzyme [2]
  IC50: 2.15 µM (active)
[3]
  EC50: 12.5 µM (active)
Large T antigen
  IC50: > 100 µM (active)
SUMO-activating enzyme [4]
  IC50: 9.5 µM (active)
[5]
  IC50: 18.9 µM (not active)
Bcl-2-like protein 1
  IC50: 64.9 µM (not active)
[6]
  IC50: 2.32 µM (active)
Nonstructural protein 1
  IC50: > 100 µM (active)
Cysteine protease ATG4B
  IC50: 10.7 µM (active)
Phospholipase A2
  IC50: 10.6 µM (active)
Genome polyprotein
  IC50: 67 µM (active)
[7]
  IC50: 7.94 µM (active)
[8]
  AC50: 15.8 µM (active)

## COc1ccc(C(=O)NCC(C)(C)SCc2c(C)cc(C)cc2C)cc1
[9]
  IC50: > 50 µM (not active)
[10]
  IC50: 24.1 µM (active)

## Cc1cc(C(=O)CSc2nnc(-c3ccccc3F)o2)c(C)n1Cc1cccs1
Estrogen receptor
  EC50: 6.97 µM (active)

## O=C(Nc1cccc(/N=C/c2cc(Br)cc(Br)c2O)c1)c1ccco1
[11]
  IC50: > 35 µM (not active)
[12]
  IC50: > 35 µM (not active)
[13]
  AC50: 57.9 µM (active)
H9c2
  IC50: 10.8 µM (active)
